This is an account of results in patent publication US9040701B2, “Apaf-1 inhibitor compounds” (LABORATORIOS SALVAT, S.A., priority 2009, dated 2015).

The assay addresses T1, Recombinant Apaf-1 produced in insect cells (rApaf-1) (Homo sapiens, UniProt O14727).
T1 construct: made in house; host or cells: insect cells (Apaf-1); E. coli (procaspase-9); cytochrome c purchased from Sigma
T1 sequence (O14727 1-1248): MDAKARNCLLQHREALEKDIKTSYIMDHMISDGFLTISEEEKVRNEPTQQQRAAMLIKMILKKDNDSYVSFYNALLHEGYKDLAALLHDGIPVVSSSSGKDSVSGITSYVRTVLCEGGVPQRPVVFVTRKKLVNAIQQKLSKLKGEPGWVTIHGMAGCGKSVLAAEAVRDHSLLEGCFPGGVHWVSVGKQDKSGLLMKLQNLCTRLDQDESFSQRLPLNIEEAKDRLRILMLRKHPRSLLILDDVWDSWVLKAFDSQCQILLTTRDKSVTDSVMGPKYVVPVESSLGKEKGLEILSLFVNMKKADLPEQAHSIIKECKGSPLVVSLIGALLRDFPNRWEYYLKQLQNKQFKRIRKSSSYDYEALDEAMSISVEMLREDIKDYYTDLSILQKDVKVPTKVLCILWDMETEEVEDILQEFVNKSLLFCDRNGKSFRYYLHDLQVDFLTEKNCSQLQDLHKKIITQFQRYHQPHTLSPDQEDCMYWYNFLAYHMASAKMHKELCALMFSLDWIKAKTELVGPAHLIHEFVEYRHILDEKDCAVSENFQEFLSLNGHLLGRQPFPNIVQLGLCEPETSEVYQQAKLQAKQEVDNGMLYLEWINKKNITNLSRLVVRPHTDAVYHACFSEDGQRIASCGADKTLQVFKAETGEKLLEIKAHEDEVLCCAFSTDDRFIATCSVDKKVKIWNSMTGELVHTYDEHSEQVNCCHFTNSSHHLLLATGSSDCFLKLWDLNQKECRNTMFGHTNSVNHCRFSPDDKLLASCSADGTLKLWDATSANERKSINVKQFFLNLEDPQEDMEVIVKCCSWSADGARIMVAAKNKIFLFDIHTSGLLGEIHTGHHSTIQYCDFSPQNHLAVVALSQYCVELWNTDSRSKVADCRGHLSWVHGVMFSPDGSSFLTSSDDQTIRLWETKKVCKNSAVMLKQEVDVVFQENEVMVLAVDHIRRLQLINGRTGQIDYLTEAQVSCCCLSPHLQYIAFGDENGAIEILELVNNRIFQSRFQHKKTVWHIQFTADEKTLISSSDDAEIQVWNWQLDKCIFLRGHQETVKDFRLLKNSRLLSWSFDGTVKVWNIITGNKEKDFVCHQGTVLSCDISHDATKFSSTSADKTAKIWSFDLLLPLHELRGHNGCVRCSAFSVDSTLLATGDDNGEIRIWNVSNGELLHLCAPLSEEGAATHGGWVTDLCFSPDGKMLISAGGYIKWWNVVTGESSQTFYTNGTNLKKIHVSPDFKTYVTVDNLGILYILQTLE
In words: In vitro apoptosome formation inhibition assay. The format is biochemical. To be noted: compound at 10 μM; rApaf-1 40 nM, dATP/Mg 100 μM, horse cytochrome c 0.1 μM, rprocaspase-9 0.1 μM; caspase-9 substrate Ac-LEDH-afc, afc release at 37° C. The procedure: Recombinant Apaf-1 produced in insect cells (rApaf-1) was incubated in the presence (at a concentration of 10 μM) or absence (as control) of the compounds to be evaluated in the assay buffer (20 mM Hepes-KOH pH 7.5, 10 mM KCl, 1.5 mM MgCl2, 1 mM EDTA, 1 mM EGTA, 1 mM DTT, 0.1 mM PMSF) for 15 minutes at 30° C. The final rApaf-1 concentration was 40 nM. dATP/Mg (Sigma) and purified horse cytochrome c (Sigma) were then added achieving final concentrations of 100 μM and 0.1 μM, respectively. It was incubated for 60 minutes at 30° C. and recombinant procaspase-9 produced in E. coli (rprocaspase-9, final concentration 0.1 μM) was then added and it was incubated for 10 minutes at 30° C. before adding the caspase-9 fluorogenic substrate Ac-LEDH-afc (final concentration 50 μM). The total assay volume was 200 μL. The caspase activity was continuously monitored by means of the afc release at 37° C. in a Wallac 1420 Workstation (λexc=390 nm, λem=510 nm).
The activity values of some compounds described in the examples are indicated in the following table expressed as the percentage of Apaf-1 inhibition.

Consider `O=C(O)CN(CCc1ccc(Cl)cc1Cl)C(=O)CC1C(=O)N(CCc2ccc(Cl)cc2Cl)CC(=O)N1CCC(c1ccccc1)c1ccccc1` (stereo not shown) [Ib.1.2, 2-(N-(2,4-dichlorophenethyl)-2-(4-(2,4-dichlorophenethyl)-1-(3,3-diphenylpropyl)-3,6-dioxopiperazin-2-yl)acetamido) acetic acid], for which the inhibition at 10 µM is 72%.

With `COC(=O)CN(CCc1ccc(Cl)cc1Cl)C(=O)CC1C(=O)N(CCc2ccc(Cl)cc2Cl)CC(=O)N1CCc1c[nH]c2ccc(OC)cc12` (stereo not shown) [Ic.5.2, Methyl 2-(N-(2,4-dichlorophenethyl)-2-(4-(2,4-dichlorophenethyl)-1-(2-(5-methoxy-1H-indol-3-yl)ethyl)-3,6-dioxopiperazin-2-yl)acetamido)acetate], the inhibition at 10 µM is 23%.

As to `O=C(O)CN(CCc1ccc(Cl)cc1Cl)C(=O)CC1C(=O)N(CCc2ccc(Cl)cc2Cl)CC(=O)N1CCc1c[nH]c2ccccc12` (stereo not shown) [Ib.3.2, 2-(2-(1-(2-(1H-indol-3-yl)ethyl)-4-(2,4-dichlorophenethyl)-3,6-dioxopiperazin-2-yl)-N-(2,4-dichlorophenethyl)acetamido) acetic acid], the inhibition at 10 µM was found to be 48%.

On to `CCC(C)N(CC(N)=O)C(=O)CC1C(=O)N(CCc2ccc(Cl)cc2Cl)CC(=O)N1CCC(c1ccccc1)c1ccccc1` (stereo not shown) [I.1.20, N-(2-amino-2-oxoethyl)-N-(sec-butyl)-2-(4-(2,4-dichlorophenethyl)-1-(3,3-diphenylpropyl)-3,6-dioxopiperazin-2-yl)acetamide], for which the inhibition at 10 µM was 36%.

`NC(=O)CN(CCc1ccc(Cl)cc1Cl)C(=O)CC1C(=O)N(CCc2ccc(Cl)cc2Cl)CC(=O)N1CCc1ccc(-c2ccccc2)cc1` (stereo not shown) [Ia.6.2, 2-(1-(2-([1,1′-biphenyl]-4-yl)ethyl)-4-(2,4-dichlorophenethyl)-3,6-dioxopiperazin-2-yl)-N-(2-amino-2-oxoethyl)-N-(2,4-dichlorophenethyl)acetamide]: the inhibition at 10 µM is 29%.

Turning to `NCCCCC(NC(=O)CN(CCc1ccc(Cl)cc1Cl)C(=O)CC1C(=O)N(CCc2ccc(Cl)cc2Cl)CC(=O)N1CCC(c1ccccc1)c1ccccc1)C(N)=O` (stereo not shown) [If.1.2, 6-amino-2-(2-(N-(2,4-dichlorophenethyl)-2-(4-(2,4-dichlorophenethyl)-1-(3,3-diphenylpropyl)-3,6-dioxopiperazin-2-yl)acetamido)acetamido)hexanamide], the inhibition at 10 µM turned out to be 80%.

Take `NC(=O)CN(CCc1ccccn1)C(=O)CC1C(=O)N(CCc2ccc(Cl)cc2Cl)CC(=O)N1CCC(c1ccccc1)c1ccccc1` (stereo not shown) [I.1.16, N-(2-amino-2-oxoethyl)-2-(4-(2,4-dichlorophenethyl)-1-(3,3-diphenylpropyl)-3,6-dioxopiperazin-2-yl)-N-(2-(pyridin-2-yl)ethyl)acetamide]: the inhibition at 10 µM came to 46%.

For the compound `COC(=O)CN(CCc1ccc(Cl)cc1Cl)C(=O)CC1C(=O)N(CCc2ccc(Cl)cc2Cl)CC(=O)N1CCc1c[nH]c2ccccc12` (stereo not shown) [Ic.3.2, Methyl 2-(2-(1-(2-(1H-indol-3-yl)ethyl)-4-(2,4-dichlorophenethyl)-3,6-dioxopiperazin-2-yl)-N-(2,4-dichlorophenethyl)acetamido)acetate], the inhibition at 10 µM is 29%.

In the case of `COc1ccc2[nH]cc(CCN3C(=O)CN(CCc4ccc(Cl)cc4Cl)C(=O)C3CC(=O)NCCc3ccc(Cl)cc3Cl)c2c1` (stereo not shown) [Id.5.2, N-(2,4-dichlorophenethyl)-2-(4-(2,4-dichlorophenethyl)-1-(2-(5-methoxy-1H-indol-3-yl)ethyl)-3,6-dioxopiperazin-2-yl)acetamide], the inhibition at 10 µM stood at 40%.

`O=C(O)CN(CCc1ccc(Cl)cc1Cl)C(=O)CC1C(=O)N(CCc2ccc(Cl)cc2Cl)CC(=O)N1Cc1ccc(F)cc1` (stereo not shown) [Ib.2.2, 2-(N-(2,4-dichlorophenethyl)-2-(4-(2,4-dichlorophenethyl)-1-(4-fluorobenzyl)-3,6-dioxopiperazin-2-yl)acetamido) acetic acid]: the inhibition at 10 µM was determined as 28%.

Broadly, the inhibition is the drop in the measured response relative to a control, in per cent.
